Data from ChEMBL document CHEMBL1154454, “Tetrahydronaphthyl azole oxime ethers: the conformationally rigid analogues of oxiconazole as antibacterials” (2009).
In brackets after ≈: the same amount, converted by molar mass.

What was measured:
Escherichia coli [1] = assay: microbe, parasite or virus in culture; format: functional; details: ATCC 9637, 24 h
Description: (§1) Antimicrobial activity against Escherichia coli ATCC 9637 after 24 hrs by standard microbroth dilution assay

Cryptococcus neoformans = assay: Antimicrobial activity against Cryptococcus neoformans after 72 hrs by standard microbroth dilution assay; format: functional
Pseudomonas aeruginosa [2] = assay: Antimicrobial activity against Pseudomonas aeruginosa ATCC BAA427 after 24 hrs by standard microbroth dilution assay; format: functional
Klebsiella pneumoniae [3] = assay: microbe, parasite or virus in culture; format: functional; details: ATCC 27736, 24 h
Description: (§2) Antimicrobial activity against Klebsiella pneumoniae ATCC 27736 after 24 hrs by standard microbroth dilution assay

Sporothrix schenckii = assay: Antimicrobial activity against Sporothrix schenckii after 72 hrs by standard microbroth dilution assay; format: functional
Candida albicans = assay: Antimicrobial activity against Candida albicans after 48 hrs by standard microbroth dilution assay; format: functional
Candida parapsilosis = assay: Antimicrobial activity against Candida parapsilosis after 48 hrs by standard microbroth dilution assay; format: functional; details: Lodderomyces parapsilosis
Staphylococcus aureus [4] = assay: microbe, parasite or virus in culture; format: functional; details: ATCC 25923, 24 h
Description: (§3) Antimicrobial activity against Staphylococcus aureus ATCC 25923 after 24 hrs by standard microbroth dilution assay

[5] = system: Trichophyton mentagrophytes; assay: Antimicrobial activity against Trichophyton mentagrophytes after 96 hrs by standard microbroth dilution assay; format: functional
Aspergillus fumigatus = assay: Antimicrobial activity against Aspergillus fumigatus after 72 hrs by standard microbroth dilution assay; format: functional
Klebsiella pneumoniae [6] = details: ATCC 27736
Description: as §2

Pseudomonas aeruginosa [7] = system: Pseudomonas aeruginosa
Escherichia coli [8] = details: ATCC 9637
Description: as §1

Staphylococcus aureus [9] = details: ATCC 25923
Description: as §3

Row | Compound | MIC (Escherichia coli [1]) [µg/mL] | MIC (Cryptococcus neoformans) [µg/mL] | MIC (Pseudomonas aeruginosa [2]) [µg/mL] | MIC (Klebsiella pneumoniae [3]) [µg/mL] | MIC (Sporothrix schenckii) [µg/mL] | MIC (Candida albicans) [µg/mL] | MIC (Candida parapsilosis) [µg/mL] | MIC (Staphylococcus aureus [4]) [µg/mL] | MIC [5] [µg/mL] | MIC (Aspergillus fumigatus) [µg/mL] | MIC (Klebsiella pneumoniae [6]) [µg/mL] | MIC (Pseudomonas aeruginosa [7]) [µg/mL] | MIC (Escherichia coli [8]) [µg/mL] | MIC (Staphylococcus aureus [9]) [µg/mL]
1 | Fc1cccc2c1CCC(Cn1cncn1)/C2=N/OCc1ccccc1 (stereo not given) | 25 (≈ 71.3 µM) | > 50 | > 50 | > 50 | > 50 | > 50 | > 50 | > 50 | > 50 | > 50 | – | – | – | –
2 | Fc1cccc2c1CCC(Cn1ccnc1)/C2=N/OCc1ccccc1 (stereo not given) | 0.781 (≈ 2.24 µM) | > 50 | > 50 | 6.25 (≈ 17.9 µM) | > 50 | > 50 | > 50 | 3.12 (≈ 8.94 µM) | > 50 | > 50 | – | – | – | –
3 | Cc1cccc2c1CCC(Cn1cncn1)/C2=N/OCc1cccc(Cl)c1 (stereo not given) | 6.25 (≈ 16.4 µM) | > 50 | > 50 | > 50 | > 50 | > 50 | > 50 | 6.25 (≈ 16.4 µM) | > 50 | > 50 | – | – | – | –
4 | Clc1cccc(CO/N=C2\c3cccc(Cl)c3CCC2Cn2cncn2)c1 (stereo not given) | 6.25 (≈ 15.6 µM) | > 50 | > 50 | > 50 | > 50 | > 50 | > 50 | > 50 | > 50 | > 50 | – | – | – | –
5 | OC(Cn1cncn1)(Cn1cncn1)c1ccc(F)cc1F [FLUCONAZOLE] | – | 1 (≈ 3.27 µM) | – | – | 2 (≈ 6.53 µM) | 0.5 (≈ 1.63 µM) | 1 (≈ 3.27 µM) | – | 1 (≈ 3.27 µM) | 2 (≈ 6.53 µM) | – | – | – | –
6 | GENTAMICIN | – | – | – | – | – | – | – | – | – | – | 0.78 | 25 | 0.18 | 6.25
7 | c1ccc(CO/N=C2\c3ccccc3CCC2Cn2ccnc2)cc1 (stereo not given) | 0.781 (≈ 2.36 µM) | > 50 | > 50 | 6.25 (≈ 18.9 µM) | > 50 | > 50 | > 50 | 6.25 (≈ 18.9 µM) | > 50 | 50 (≈ 151 µM) | – | – | – | –
8 | Fc1cccc2c1CCC(Cn1ccnc1)/C2=N/OCc1cccc(Cl)c1 (stereo not given) | 0.391 (≈ 1.02 µM) | > 50 | > 50 | 1.56 (≈ 4.07 µM) | > 50 | > 50 | > 50 | 0.781 (≈ 2.03 µM) | > 50 | > 50 | – | – | – | –
9 | Clc1cccc(CO/N=C2\c3cccc(Br)c3CCC2Cn2ccnc2)c1 (stereo not given) | 0.391 (≈ 0.879 µM) | > 50 | > 50 | 1.56 (≈ 3.51 µM) | > 50 | > 50 | 50 (≈ 112 µM) | 0.781 (≈ 1.76 µM) | > 50 | > 50 | – | – | – | –
10 | Clc1ccc(CO/N=C(\Cn2ccnc2)c2ccc(Cl)cc2Cl)c(Cl)c1 [OXICONAZOLE] | > 50 | 0.01 (≈ 0.0233 µM) | > 50 | > 50 | 3.12 (≈ 7.27 µM) | 12.5 (≈ 29.1 µM) | 3.12 (≈ 7.27 µM) | 6.25 (≈ 14.6 µM) | 6.25 (≈ 14.6 µM) | 6.25 (≈ 14.6 µM) | – | – | – | –
11 | Cc1cccc2c1CCC(Cn1ccnc1)/C2=N/OCc1cccc(Cl)c1 (stereo not given) | 0.391 (≈ 1.03 µM) | > 50 | > 50 | 1.56 (≈ 4.11 µM) | > 50 | > 50 | > 50 | 0.781 (≈ 2.06 µM) | > 50 | 50 (≈ 132 µM) | – | – | – | –
12 | Clc1cccc(CO/N=C2/c3cccc(Br)c3CCC2Cn2ccnc2)c1 (stereo not given) | > 50 | > 50 | > 50 | > 50 | 50 (≈ 112 µM) | 50 (≈ 112 µM) | > 50 | 1.56 (≈ 3.51 µM) | 12.5 (≈ 28.1 µM) | > 50 | – | – | – | –
13 | Cc1cccc2c1CCC(Cn1ccnc1)/C2=N/OCc1ccccc1 (stereo not given) | 0.781 (≈ 2.26 µM) | > 50 | > 50 | 6.25 (≈ 18.1 µM) | > 50 | > 50 | > 50 | 1.56 (≈ 4.52 µM) | > 50 | > 50 | – | – | – | –
14 | Clc1cccc2c1CCC(Cn1cncn1)/C2=N/OCc1ccccc1 (stereo not given) | 25 (≈ 68.1 µM) | > 50 | > 50 | > 50 | > 50 | > 50 | > 50 | > 50 | > 50 | > 50 | – | – | – | –
15 | Brc1cccc2c1CCC(Cn1ccnc1)/C2=N/OCc1ccccc1 (stereo not given) | 0.391 (≈ 0.953 µM) | > 50 | > 50 | 3.12 (≈ 7.62 µM) | > 50 | > 50 | > 50 | 1.56 (≈ 3.81 µM) | > 50 | 50 (≈ 122 µM) | – | – | – | –
16 | Clc1cccc2c1CCC(Cn1ccnc1)/C2=N/OCc1ccccc1 (stereo not given) | 0.391 (≈ 1.07 µM) | > 50 | > 50 | 6.25 (≈ 17.1 µM) | > 50 | > 50 | > 50 | 1.56 (≈ 4.27 µM) | > 50 | 25 (≈ 68.3 µM) | – | – | – | –
17 | Brc1cccc2c1CCC(Cn1cncn1)/C2=N/OCc1ccccc1 (stereo not given) | 6.25 (≈ 15.2 µM) | > 50 | > 50 | > 50 | > 50 | > 50 | > 50 | 12.5 (≈ 30.4 µM) | > 50 | > 50 | – | – | – | –
18 | Cc1cccc2c1CCC(Cn1cncn1)/C2=N/OCc1ccccc1 (stereo not given) | 25 (≈ 72.2 µM) | > 50 | > 50 | > 50 | > 50 | > 50 | > 50 | > 50 | > 50 | > 50 | – | – | – | –
19 | Clc1cccc(CO/N=C2\c3ccccc3CCC2Cn2cncn2)c1 (stereo not given) | 12.2 (≈ 33.4 µM) | > 50 | > 50 | > 50 | > 50 | > 50 | > 50 | 12.2 (≈ 33.4 µM) | > 50 | > 50 | – | – | – | –
20 | Clc1cccc(CO/N=C2/c3ccccc3CCC2Cn2ccnc2)c1 (stereo not given) | > 50 | > 50 | > 50 | > 50 | > 50 | > 50 | > 50 | 6.25 (≈ 17.1 µM) | 25 (≈ 68.3 µM) | > 50 | – | – | – | –
21 | Clc1cccc2c1CCC(Cn1ccnc1)/C2=N\OCc1ccccc1 (stereo not given) | > 50 | > 50 | > 50 | > 50 | 50 (≈ 137 µM) | 50 (≈ 137 µM) | > 50 | 3.12 (≈ 8.54 µM) | 12.5 (≈ 34.2 µM) | > 50 | – | – | – | –
22 | Clc1cccc(CO/N=C2\c3ccccc3CCC2Cn2ccnc2)c1 (stereo not given) | 0.391 (≈ 1.07 µM) | > 50 | > 50 | 3.12 (≈ 8.54 µM) | > 50 | > 50 | > 50 | 1.56 (≈ 4.27 µM) | > 50 | 25 (≈ 68.3 µM) | – | – | – | –
23 | Fc1cccc2c1CCC(Cn1cncn1)/C2=N/OCc1cccc(Cl)c1 (stereo not given) | 50 (≈ 130 µM) | > 50 | > 50 | > 50 | > 50 | > 50 | > 50 | > 50 | > 50 | > 50 | – | – | – | –
24 | Clc1cccc(CO/N=C2\c3cccc(Br)c3CCC2Cn2cncn2)c1 (stereo not given) | 3.12 (≈ 7.01 µM) | > 50 | > 50 | > 50 | > 50 | > 50 | > 50 | 6.25 (≈ 14 µM) | > 50 | > 50 | – | – | – | –
25 | c1ccc(CO/N=C2\c3ccccc3CCC2Cn2cncn2)cc1 (stereo not given) | 25 (≈ 75.2 µM) | > 50 | > 50 | > 50 | > 50 | > 50 | > 50 | > 50 | > 50 | > 50 | – | – | – | –
